Here are results for two compounds from patent US20240390390A1, “NITRIC OXIDE RELEASING PROSTAMIDE AS NEUROPROTECTIVE AGENT” (Nicox SA, priority 2021, published 2024).

Structures are written as SMILES.

The test system of data set [1] is ischemia/reperfusion injury of the optic nerve induced by endothelin-1 (ET-1) in rabbits. Briefly: Electroretinogram (ERG) in ET-1 ischemia/reperfusion rabbit model. Type of data set: in vivo, New Zealand white (NZW) rabbits. On the procedure: (§1) This series of experiments were performed to determine the effect of Compound (I) on ocular vascular reactivity i.e. ophthalmic artery resistive index (OA-RI) and, consequently, on retinal function after repeated ocular topical dosing in a well-defined model of ischemia/reperfusion injury of the optic nerve induced by the retrobulbar injection of endothelin-1 (ET-1) in rabbits.
(§2) Adult male New Zealand white (NZW) rabbits weighting 1.5-2.0 kg were used. The animals were kept in individual cages, food and water were provided ad libitum. The ischaemia/reperfusion lesion of the optic nerve was obtained by subtenonian injection twice a week with 500 μL of 250 nM ET-1 (Fluka, Israel) in water using a lacrimal cannula under anesthesia produced by ketamine (20 mg/kg, Lobotor, ACME, 100 mg/ml) and xilazine (5 mg/kg, Sedaxylan 2%, Dechra Veterinary Products S.r.l) intramuscularly. Animals were treated with ET-1 for 6 weeks. Compound (I) 0.1% (1 mg/mL) solution or vehicle were administered as eye drop (30 μL/eye), twice a day (around 10:00 AM and 4:00 PM) starting 2 weeks after ET-1 first dosing until the end of the experiment.
Electroretinogram (ERG). Topical anesthesia was applied using one drop […] oxybuprocaine hydrochloride, 4 mg/ml. The eyes were then dilated by topical application of tropicamide 1% and, when needed, adapted to darkness for at least 2 hours prior to standard ERGs recording in both eyes using contact lens corneal electrodes so to have sufficiently stable and amplified recordings. The ERG signals [(amplitude, microvolts (μV)] were recorded using Retimax (CSO, Florence, Italy) and according to the current International Society for Clinical Electrophysiology (ISCEV) indications; specifically, the dark-adapted 0.01 ERG (rod response), dark-adapted 3.0 ERG (combined rod-cone response) and, light-adapted 3.0 (cone response) were recorded. Flashes intensity varied: • a) from 0.01 photopic cd·s·m^−2 to 0.025 scotopic candela-seconds per meter squared (cd·s·m^−2) with a minimum interval between flashes of 2 s for the dark-adapted 0.01 ERG; • b) from 3.0 photopic cd·s·m^−2 to 7.5 scotopic cd·s·m^−2 with a minimum interval between flashes of 10 s for the dark-adopted 3.0 ERG • c) from 3.0 photopic cd·s·m^−2 to 7.5 scotopic cd·s·m^−2 with a minimum interval between flashes of 0.5 s and a light adaptation strength of 30 cd·s·m^−2 for the light-adopted 3.0 ERG. In all cases ERG recordings lasted 250 ms. […].
Measurements were taken prior ET-1 first dose (baseline, time 0) and then at the end of week-2 (prior to vehicle- or Compound (I) first day-first dose) and at the end of week-6 (36 h after vehicle or Compound (I)-last day-last dose).

Data set [2] has as its system patients with open-angle glaucoma or ocular hypertension. Briefly: Phase 2 clinical trial, reduction of elevated intraocular pressure (IOP). Type of data set: in vivo, human. On the procedure: The efficacy of Compound (I) for the reduction of elevated intraocular pressure (IOP) was evaluated in a Phase 2 clinical trial conducted in 433 patients with open-angle glaucoma or ocular hypertension, treated once daily for 27 days.

Data set [3] relates to ischemia/reperfusion injury of the optic nerve induced by endothelin-1 (ET-1) in rabbits. Briefly: Ophthalmic artery resistive index (OA-RI) by ecocolor Doppler in ET-1 ischemia/reperfusion rabbit model. Type of data set: in vivo, New Zealand white (NZW) rabbits. Also noted: key: Pourcelot resistive index = (PSV−EDV)/PSV. The following applies: for Ophthalmic artery resistive index (OA-RI), Baseline: prior to ET-1 dosing and prior to test item. The protocol: as §1, §2
Ophthalmic Artery Resistive Index (OA-RI) was estimated using an ecocolor Doppler DynaView™ II SSD-1700 (Aloka Holding Europe AG, Milan, Italy) prior to ET-1 treatment (baseline, time 0), and weekly thereafter until the end of the study. From week 2 to week 4, morning dosing with test article or vehicle were omitted on the day of hemodynamic measurements in order to have virtually drug-free conditions (16-18 h post last dose) at the time of testing. Pourcelot resistive index for ophthalmic artery (OA-RI) was calculated as following: (PSV−EDV)/PSV where PSV and EDV refer to Peak Systolic Velocity and End Diastolic Velocity, respectively.

Data set [4] relates to subjects with open-angle glaucoma or ocular hypertension, non-study eyes with normal IOP. Conditions: 0.024% once daily in the evening up to 12 months, cited from earlier work.
Where [5] appears, read: 0.1% solution, 30 μL/eye bid, 36 h after last dose, ± S.E.M.
Where [6] appears, read: after 2 weeks ET-1, prior to first dose of test item, ± S.E.M.
The mark [7] stands for this setting: prior to ET-1 and test item, ± S.E.M.
The mark [8] stands for this setting: 0.1% solution, 30 μL/eye eye drop bid.
[9] abbreviates: 0.1% solution, 30 μL/eye eye drop bid, listed as Cpd (1).

On to `CCNC(=O)CCC/C=C\C[C@@H]1[C@@H](/C=C/[C@H](CCc2ccccc2)OC(=O)CCCCCO[N+](=O)[O-])[C@H](O)C[C@@H]1O` [Compound (I), Hexanoic acid, 6-(nitrooxy)-, (1S,2E)-3-[(1R,2R,3S,5R)-2-[(2Z)-7-(ethylamino)-7-oxo-2-hepten-1-yl]-3,5-dihydroxycyclopentyl]-1-(2-phenylethyl)-2-propen-1-yl ester], for which, in data set [1] (setting [5]), the “ERG Amplitude, Dark adapted 0.01 (Rod response), ET-1 (6 weeks) + Test items (4 weeks daily bid)” value is given as 44.3 ± 4.5 μV; the “ERG Amplitude, Dark adapted 3.0 (Rod/cone response), ET-1 (6 weeks) + Test items (4 weeks daily bid)” value was 122.8 ± 11.4 μV; the “ERG Amplitude, Light adapted 3.0 (cone response), ET-1 (6 weeks) + Test items (4 weeks daily bid)” value came out at 64.2 ± 6.8 μV. Moreover, in data set [1] (setting [6]), the “ERG Amplitude, Dark adapted 0.01 (Rod response), ET-1 (2 weeks)” value was 37.6 ± 6.2 μV; the “ERG Amplitude, Dark adapted 3.0 (Rod/cone response), ET-1 (2 weeks)” value came to 96.6 ± 9.4 μV; the “ERG Amplitude, Light adapted 3.0 (cone response), ET-1 (2 weeks)” value stood at 60.2 ± 4.3 μV. The “Impairment in the ERG wave amplitude versus vehicle” value in data set [1] (eyes treated for 4 weeks, dark-adapted 0.01, dark-adapted 3.0 and Light-adapted 3.0) is on record as “significantly (p<0.05) less impairment”. Besides, in data set [1] (setting [7]), the “ERG Amplitude, Dark adapted 0.01 (Rod response), Baseline” value is on record as 42.3 ± 6.9 μV; the “ERG Amplitude, Dark adapted 3.0 (Rod/cone response), Baseline” value was found to be 118.0 ± 10.3 μV; the “ERG Amplitude, Light adapted 3.0 (cone response), Baseline” value came out at 67.6 ± 6.4 μV. In addition, the “Conjunctival hyperemia, treated patients” value in data set [2] (Phase 2, highest dose tested) is recorded as 16.8%. Further, the Tolerability entry in data set [2] (Phase 2, once daily for 27 days) is recorded as “well tolerated”. Moreover, in data set [3] (setting [8]), the “Ophthalmic artery resistive index (OA-RI), ET-1 (3-weeks) + Test items (1 week daily bid)” value was 0.35 ± 0.03; the “Ophthalmic artery resistive index (OA-RI), ET-1 (4-weeks) + Test items (2 weeks daily bid)” value turned out to be 0.32 ± 0.03; the “Ophthalmic artery resistive index (OA-RI), ET-1 (5 weeks) + Test items (3 weeks daily bid)” value is given as 0.32±0.03; the “Ophthalmic artery resistive index (OA-RI), ET-1 (6 weeks) + Test items (4 weeks daily bid)” value is on record as 0.33±0.02. Moreover, in data set [3] (setting [9]), the “Ophthalmic artery resistive index (OA-RI), ET-1 (5 weeks) + Test items (3 weeks daily bid)” value was found to be 0.32 ± 0.03 and the “Ophthalmic artery resistive index (OA-RI), ET-1 (6 weeks) + Test items (4 weeks daily bid)” value was 0.33 ± 0.02. Further, the “Ophthalmic artery resistive index (OA-RI), ET-1 (2 weeks)” value in data set [3] (after 2 weeks ET-1, prior to first dose of test item) is 0.36 ± 0.03. Also, the “Ophthalmic artery resistive index (OA-RI), Baseline” value in data set [3] amounted to 0.30±0.02. For the same compound, the “Ophthalmic artery resistive index (OA-RI), Baseline” value in data set [3] (listed as Cpd (1)) was 0.30 ± 0.02.

For the compound `O=C(CCC/C=C\C[C@@H]1[C@@H](CC[C@@H](O)CCc2ccccc2)[C@H](O)C[C@@H]1O)OCCCCO[N+](=O)[O-]` [Latanoprostene Bunod], the “IOP lowering from baseline, Japanese population” value in data set [4] (fellow eyes with baseline IOP ≤19 mmHg) is recorded as 3.2-3.9 mmHg. For the same compound, in data set [4] (fellow eyes with baseline IOP ≤21 mmHg), the “IOP lowering from baseline, Caucasian population” value was 4.2-4.9 mmHg.
